US10933043B2, “Methods of treating neurodevelopmental diseases and disorders” (Deakin University, priority 2014, dated 2021)
Entries after “also recorded” stand apart in the source; their conditions may differ. Values belong to the compound of their own block, whether it stands above or below them.

Key:
[1] = system: aromatase; assay: Aromatase immunohistochemistry in human neuroblastoma SH-SY5Y cells exposed to BPA with or without 10-HDA; format: cell-based; details: for effect on BPA-induced changes of aromatase expression pattern and neurites: 25 μg/L BPA + 1 mM 10 HDA
Experimental: FIG. 1: Effects of BPA and 10-HDA on aromatase expression in human neuroblastoma SH-SY5Y cells. Under normal conditions, SH-SY5Y cells express aromatase which is a membrane bound protein in endoplasmic reticulum, and appears as green punctate staining eventually distributed within the cell by immunohistochemistry. In the presence of 25 μg/L bisphenol A the aromatase became aggregates. The effects of bisphenol A can be ameliorated by addition of 10HDA. (a) +0 μg/L BPA (Vehicle)—Clear staining of aromatase (green) evenly distributed in the cytoplasm and along the neurites, as tiny “dots”. A lot of healthy cells evenly distributed over the surface area of the coverslip. B-tubulin (red) is highly expressed throughout the cytoplasm and neurites. […] A decrease in 13-tubulin expression was also observed in most cells that have lost their neurites. […] (c) +25 μg/L BPA+1 mM 10 HDA—Good neurite growth and even aromatase distribution throughout the cytoplasm was observed.
Human neuroblastoma SHY-SY-5Y cells were cultured were cultured in Dulbecco's Modified Eagle Medium supplemented with 10% heat-inactivated Fetal Bovine Serum, 1% penicillin and 1% L-Glutamine at 37° C. in a humidified atmosphere of 95% air and 5% CO2. The localization of aromatase in these cells can be detected using immunohistochemistry with antibody specific to aromatase. Under normal conditions, aromatase appears as punctuate staining throughout the cells, as it is a membrane bound protein in the endoplasmic reticulum.

[2] = system: BPA exposed mice; assay: 10-HDA treatment of BPA exposed mice: social interaction and spontaneous grooming; format: in vivo, mouse
Experimental: As described in Example 2, mice with autistic-like behaviour were generated by mating female wild type FVBN mice with male CYP19-GFP mice and followed by subcutaneous injection of 50 […] of BPA on gestational days 10.5 to 14.5.
After weaning, control and BPA exposed pups were administered 10-HDA daily (0 and 500 μg/kg/day; dissolved in saline) by intraperitoneal injection for a maximum period of 6 weeks. Six litters were initially studied after 3 weeks of daily treatment for anxiety, memory, social interaction (FIG. 4A) and spontaneous grooming.
Data collection was conducted by investigators who were blind to the respective genotypes or treatment of any given animal. Two criteria were assessed as the basis for the behavioural studies, social interaction, and spontaneous grooming activity.
(§1) With regard to the social interaction study, the test mouse was placed in a social test box, a three-chambered clear plastic box with doorways in the dividing walls to allow access into each chamber. Each side-chamber contained a wire cage. The test mouse was evaluated over three sessions. In session 1, the test mouse was placed in the middle chamber and allowed to explore all 3 chambers for 10 min. In session 2, an unfamiliar same sex and age mouse (stranger 1) was enclosed in the wire cage either side of the central chamber, and the test mouse was allowed to explore the entire social test box for a period of 10 min. In session 3, a new unfamiliar mouse was placed in the previously empty wire cage such that the test mouse has a choice between the first, now familiar, already-investigated mouse (stranger 1) and the novel unfamiliar mouse (stranger 2). Mouse movements were recorded and tracked using the TopScan video tracking system. Durations in each chamber, time spent sniffing each wire cage, and the number of transitions between chambers were analysed.
Spontaneous Grooming activity was used as a measure of repetitive activity. The spontaneous grooming of the mice were recorded by the TopScan video tracking system during the session 1 or the 3 chamber studies described above. The duration and frequency of grooming were the parameters of measurements and analysed blind.
The male animals were then re-administered with either vehicle or 10-HDA as described above for 3 weeks, and subjected to behavioural studies again (FIG. 4C).

[3] = system: aromatase cells in the amygdala; assay: Patch clamping of aromatase cells in the amygdala in brain slices of treated mice; format: in vivo, mouse
Source text: After behaviour studies, the animals were sacrificed and electrophysiological data were gathered from the brain slices by patch clamping of aromatase cells in the amygdala.

[4] = system: neurons in the somatosensory cortex; assay: Dendritic length of neurons in the somatosensory cortex of treated mice; format: in vivo, mouse; details: BPA exposed mice with 10-HDA treatment
[5] = system: primary cortical culture; assay: Primary cortical cell cultures of male mouse embryonic foetuses: dendritic length and spine densities; format: cell-based
Experimental: Primary cortical culture was prepared from male mouse foetuses at embryonic day 15.5. Specifically, the effects of BPA and 10-HDA on dendritic length and spine densities were assessed. Four test groups were assessed, mice treated with BPA, mice treated with 10-HDA, mice treated with BPA and 10-HDA, and a vehicle control. Ten neurons were measured and the experiments were duplicated.

[6] = system: differentiated mouse motor neuronal NSC-34 cells; assay: Protection of NSC-34 cells from toxic BPA exposure, MTT assay; format: cell-based; details: 1 mM compound, 500 ng/ml of BPA, MTT assay 72 hours later
Experimental: To compare the respective activities of trans and cis 10-HDA 1 mM respectively of cis or trans 10-HDA in the presence of 500 ng/ml of BPA (toxic level) was added to differentiated mouse motor neuronal NSC-34 cells. Cell survival was determined by MTT assay 72 hours later.

[7] = system: mice; assay: In utero BPA exposure of mice: offspring social interaction and stereology neuron counts; format: in vivo, mouse
Experimental: BPA (50 μg/kg) was thus administered to pregnant mice mid-gestation (i.e. embryonic days 10.5 to 14.5). […] A further study was conducted to examine the effects of BPA exposure on numbers of aromatase-GFP positive neurons in utero (FIG. 3). The medial amygdala is involved in social interaction and highly expressed aromatase.
as §1

[8] = BPA, male mouse embryonic day 15.5 cortical neurons

Structure (SMILES): O=C(O)/C=C/CCCCCCCO [10-HDA, 10-hydroxy-2-decenoic acid]
- effect on BPA-induced changes of aromatase expression pattern and neurites ([1]; SH-SY5Y cells): can protect against the denaturing effect of bisphenol A on aromatase
- effect on BPA-induced changes of aromatase expression pattern and neurites ([1]; SH-SY5Y cells, listed as 10HDA): ameliorates the effects of BPA on the expression pattern of aromatase and neurites
- social interaction deficit and autistic-like behaviour ([2]; BPA exposed animals, 10-HDA 500 μg/kg/day intraperitoneal daily, 3 weeks): could ameliorate the social interaction deficit and autistic-like behaviour
- excessive grooming ([2]; BPA exposed male offspring, 10-HDA treatment 3 weeks): ameliorated
- social interaction after treatment withdrawal ([2]; BPA-exposed male animals, treatments withdrawn for 3 months): withdrawal led to presentation of social interaction deficit
- resistance of the neurons ([3]; BPA exposed mice with 10-HDA treatment): restored resistance to normal
- dendritic length of the neurons [4]: restored the dendritic length of the neurons in the somatosensory cortex to normal length
- effect against BPA on spine density and dendritic length ([5]; BPA and 10-HDA): reverse or protect against the effect of BPA
- neurites and spines formation ([5]; primary cortical culture): has the capacity to stimulate neurites and spines formation
- cell survival (protection against BPA toxicity) [6]: exhibits neuroprotective effects

- β-tubulin expression ([1]; 25 μg/L BPA, SH-SY5Y cells that have lost their neurites): decrease
- ASD-like behaviours ([7]; BPA 50 μg/kg to pregnant mice embryonic days 10.5 to 14.5, WT male offspring): exhibit ASD-like behaviours
- time spent with the stranger mice (social interaction) ([7]; BPA 50 μg/kg to pregnant mice embryonic days 10.5 to 14.5, male offspring vs vehicle exposed male or BPA exposed female offspring): significantly less time
- numbers of aromatase-GFP positive neurons ([7]; BPA exposure in utero, standard Stereology method): significantly reduced
- fewer neurons in the medial amygdala ([7]; male offspring exposed to BPA): 13.5%
- grooming ([2]; 50 μg/kg/day of BPA exposed male offspring): excessive grooming
- resistance of the neurons ([3]; BPA exposure, patch clamping of brain slices): reduced the resistance of the neurons
- dendritic length of neurons [5, 8]: decreased
- spine density [5, 8]: decreased
Structure (SMILES): CC(C)(c1ccc(O)cc1)c1ccc(O)cc1 [BPA, bisphenol A]
- neurites ([1]; 25 μg/L BPA, SH-SY5Y cells): Some populations of cells are starting to lose their neurites
- aromatase localization/staining pattern ([1]; 25 μg/L BPA, SH-SY5Y cells, immunohistochemistry): aromatase forms aggregate and will lose its function; also recorded: could denature aromatase in vitro; also recorded: Aromatase aggregates start to form

Structure (SMILES): O=C(O)/C=C\CCCCCCCO [cis 10-HDA]
- cell survival (protection against BPA toxicity) [6]: does not protect against BP toxicity
